# Reference: patent US10077436B2, “Beta-glucosidase enzymes for increased biomass saccharification” (Edeniq, Inc., priority 2013, dated 2018)
# Target: T1, Aspergillus niger beta-glucosidase, wild type, yEdQ745-BG (CAB75696.1, SEQ ID NO:2) (Aspergillus niger, UniProt Q9P8F4)
# T1 construct: strain yEdQ745
# T1 sequence (Q9P8F4 20-860): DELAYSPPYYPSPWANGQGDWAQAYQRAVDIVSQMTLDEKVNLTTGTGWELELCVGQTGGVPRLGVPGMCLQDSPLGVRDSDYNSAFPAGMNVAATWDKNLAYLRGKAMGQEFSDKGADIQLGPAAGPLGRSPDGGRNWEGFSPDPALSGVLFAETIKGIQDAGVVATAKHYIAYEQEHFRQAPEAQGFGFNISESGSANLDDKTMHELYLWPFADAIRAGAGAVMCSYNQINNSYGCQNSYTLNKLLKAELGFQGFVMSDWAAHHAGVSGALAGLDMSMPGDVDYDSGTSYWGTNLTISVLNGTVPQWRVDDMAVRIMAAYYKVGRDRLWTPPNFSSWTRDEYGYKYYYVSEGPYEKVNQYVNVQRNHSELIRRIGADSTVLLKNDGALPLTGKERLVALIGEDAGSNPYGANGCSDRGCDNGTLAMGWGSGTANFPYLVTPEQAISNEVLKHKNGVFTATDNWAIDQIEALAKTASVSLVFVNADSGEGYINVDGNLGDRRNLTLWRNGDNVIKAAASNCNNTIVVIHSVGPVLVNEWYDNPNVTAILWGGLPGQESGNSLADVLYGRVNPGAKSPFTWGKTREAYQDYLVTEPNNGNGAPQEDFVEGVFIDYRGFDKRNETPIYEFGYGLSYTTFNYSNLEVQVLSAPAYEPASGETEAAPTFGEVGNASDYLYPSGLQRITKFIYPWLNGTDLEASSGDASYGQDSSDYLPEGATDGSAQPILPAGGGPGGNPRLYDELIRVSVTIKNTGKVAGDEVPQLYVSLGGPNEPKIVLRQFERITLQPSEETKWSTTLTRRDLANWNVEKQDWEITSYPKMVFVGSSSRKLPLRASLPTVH
# Experiment: BG kinetics, pNPG hydrolysis assay with glucose as competitive inhibitor, yEdQ745-BG
# Format: biochemical
# Text: Accordingly, in some embodiments, the unmodified form of the beta-glucosidase is a wild-type or a naturally occurring beta-glucosidase, such as, for example, a fungal beta-glucosidase. The full nucleic acid and amino acid sequence for numerous fungal beta-glucosidases are available. The amino acid sequence of A. niger beta-glucosidase is provided as SEQ ID NO:2. Thus, in some embodiments, the unmodified beta-glucosidase is from an Aspergillus species. In some embodiments, the unmodified beta-glucosidase is from a Trichoderma species.
# The beta-glucosidase (BG) gene from Aspergillus niger (Accession #CAB75696.1) was integrated into the TR3 yeast background at the T4U3 genomic site.
# The BG-expressing strains were subsequently used in corn mash and corn stover simultaneous saccharification and fermentation (SSF) studies using flask scale and pilot plant fermentations. […]
# BG activity assay using pNPG is one of the two commonly used standard assays to measure BG activity, which utilizes hydrolysis of p-nitrophenyl-β-D-glucopyranoside (pNPG) by BG into a yellow colored product, p-nitrophenol (pNP), that has a strong absorbance at 405 nm. […] The reaction was then terminated by adding 100 μL of 0.25 M sodium carbonate, and the amount of pNP produced was determined by measuring absorbance at 405 nm using a predetermined calibration curve. […]
smiles,measurement,setting,value
OC[C@H]1OC(O)[C@H](O)[C@@H](O)[C@@H]1O (some centres unmarked) [glucose],Ki,,2130 ± 180 µM
same,Km/Ki,"inhibitor influence, Km for pNPG / Ki for glucose, pH 5.0, 50° C.",0.30
